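Cells were grown in 96-well plates and exposed to each compound for 48 hours at five concentrations; endpoints were interpolated linearly between bracketing concentrations, or set to the highest concentration if not reached. GI50 is the concentration that inhibits growth by half. At the TGI there is no net growth.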
Columns and labels:
Assay in all cases: growth of human tumour cells (NCI), 48 h
CAKI-1 renal = test system: CAKI-1 renal
SN12C renal = test system: SN12C renal
NCI-H226 lung = test system: NCI-H226 lung
SK-MEL-2 melanoma = test system: SK-MEL-2 melanoma
NCI-H522 lung = test system: NCI-H522 lung
HOP-92 NSCLC = test system: HOP-92 NSCLC
OVCAR-5 ovarian = test system: OVCAR-5 ovarian
OVCAR-3 ovarian = test system: OVCAR-3 ovarian
M14 melanoma = test system: M14 melanoma
RXF 393 renal = test system: RXF 393 renal

Row | SMILES | TGI (CAKI-1 renal) [µM] | TGI (SN12C renal) [µM] | TGI (NCI-H226 lung) [µM] | TGI (SK-MEL-2 melanoma) [µM] | TGI (NCI-H522 lung) [µM] | TGI (HOP-92 NSCLC) [µM] | TGI (OVCAR-5 ovarian) [µM] | TGI (OVCAR-3 ovarian) [µM] | TGI (M14 melanoma) [µM] | GI50 (CAKI-1 renal) [µM] | GI50 (SN12C renal) [µM] | GI50 (NCI-H226 lung) [µM] | GI50 (SK-MEL-2 melanoma) [µM] | GI50 (NCI-H522 lung) [µM] | GI50 (RXF 393 renal) [µM] | TGI (RXF 393 renal) [µM] | GI50 (HOP-92 NSCLC) [µM] | GI50 (OVCAR-5 ovarian) [µM] | GI50 (OVCAR-3 ovarian) [µM] | GI50 (M14 melanoma) [µM]
1 | C/C(CN1C(=O)c2ccccc2C1=O)=N\NS(=O)(=O)c1ccccc1 | > 100 | > 100 | > 100 | > 100 | > 100 | > 100 | > 100 | > 100 | > 100 | – | – | – | – | – | – | – | – | – | – | –
2 | CC/C(=N\Nc1nc2ccccc2n1C)c1ccccn1 | 1.98 | 12.7 | 1.05 | 14.9 | 2.33 | 4.82 | 15.6 | 10.9 | – | 0.113 | 0.128 | 0.117 | 0.589 | 0.0392 | 0.193 | 1.41 | 0.184 | 0.156 | < 0.01 | –
3 | NC(=S)N/N=C(/CC(=O)c1ccc([N+](=O)[O-])cc1)C(=O)Nc1ncc([N+](=O)[O-])s1 | – | > 100 | > 100 | > 100 | – | > 100 | > 100 | > 100 | > 100 | – | – | – | – | – | – | > 100 | – | – | – | –
4 | Cc1cc2c3ccccc3n(C)c2c2c1C(=O)c1ccccc1C2=O | 54.8 | 41.7 | 30.5 | 41.3 | 49.2 | 35 | – | 54.1 | 40.9 | – | – | – | – | – | – | – | – | – | – | –
5 | O=C(c1cc2ccccc2[nH]1)C(O)(c1cc2ccccc2[nH]1)c1cc2ccccc2[nH]1 | > 246 | > 246 | > 246 | > 246 | > 246 | > 246 | > 246 | > 246 | – | – | – | – | – | – | – | > 246 | – | – | – | –
6 | CC(=O)Nc1ccc2nncnc2c1 | > 100 | > 100 | > 100 | > 100 | > 100 | – | > 100 | > 100 | > 100 | – | – | – | – | – | – | – | – | – | – | –
7 | O=C(CC(=O)N1N=C(n2ccc3ccccc32)CC1c1ccccc1)Nc1cccc(Cl)c1 (stereo not drawn) | – | > 100 | – | > 100 | > 100 | > 100 | > 100 | > 100 | > 100 | – | – | – | – | – | – | > 100 | – | – | – | –
8 | Cc1cc(C)nc(NS(=O)(=O)c2ccc(Nc3c4ccccc4nc4c(C(=O)NCCN(C)C)ccc(Cl)c34)cc2)n1 | – | 8.2 | 2.77 | 12.1 | 3.32 | – | 14.9 | 23 | 10.6 | – | – | – | – | – | – | 6.31 | – | – | – | –
9 | COC(=O)/C(C#N)=C\N1CCN(C(=O)c2ccco2)C1=S | 14.1 | 14.4 | – | 8.39 | – | 43.1 | – | 33.6 | 19.9 | 3.43 | 3.69 | – | 2.94 | – | 3.1 | 7.71 | 14 | – | 4.92 | 6.35
10 | C=CCC(C(=O)OC)C1(C(=O)OC)c2[nH]c3ccccc3c2CCN1Cc1ccccc1 (stereo not drawn) | > 100 | > 100 | – | > 100 | > 100 | 74.6 | > 100 | > 100 | > 100 | – | – | – | – | – | – | > 100 | – | – | – | –
11 | CCC(=O)C1=C(OC(C)=O)C2Cc3c(n(C)c4ccccc34)C(C1)N2C (stereo not drawn) | > 100 | 61.5 | > 100 | > 100 | 30 | > 100 | > 100 | > 100 | > 100 | – | – | – | – | – | – | – | – | – | – | –
